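Where inhibition never reached the appropriate level, the endpoint shown equals the highest concentration tested. Otherwise, values were interpolated linearly from a five-concentration, 48-hour dose response in 96-well plates. GI50 = concentration required for 50% inhibition of growth. TGI marks complete inhibition of growth.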
Assays:
Assay in all cases: NCI tumour cell line growth inhibition, 48 h; in the data active = GI50 below about 0.43 µM; inactive = the rest
[1] = tested on: DU-145 prostate
[2] = tested on: MDA-MB-435
[3] = tested on: A549 NSCLC
[4] = tested on: PC-3 prostate
[5] = tested on: IGROV1 ovarian
[6] = tested on: HCT-116 colon
[7] = tested on: NCI-H522 lung
[8] = tested on: T-47D breast
[9] = tested on: COLO 205 colon
[10] = tested on: RXF 393 renal
[11] = tested on: HS 578T breast
[12] = tested on: MCF7 breast
[13] = tested on: ACHN renal
[14] = tested on: SK-MEL-5 melanoma
[15] = tested on: UACC-257 melanoma
[16] = tested on: K-562 leukemia
[17] = tested on: LOX IMVI melanoma
[18] = tested on: SNB-19 CNS
[19] = tested on: NCI-H23 lung
[20] = tested on: SK-MEL-28 melanoma
[21] = tested on: SK-OV-3 ovarian
[22] = tested on: U251 CNS
[23] = tested on: MDA-MB-231 breast
[24] = tested on: HCC-2998 colon
[25] = tested on: HCT-15 colon
[26] = tested on: CCRF-CEM leukemia
[27] = tested on: A498 renal
[28] = tested on: OVCAR-5 ovarian
[29] = tested on: NCI-H460 lung
[30] = tested on: CAKI-1 renal
[31] = tested on: HOP-62 NSCLC
[32] = tested on: KM12 colon
[33] = tested on: SN12C renal
[34] = tested on: SNB-75 CNS
[35] = tested on: SK-MEL-2 melanoma
[36] = tested on: OVCAR-4 ovarian
[37] = tested on: TK-10 renal
[38] = tested on: UACC-62 melanoma
[39] = tested on: MOLT-4 leukemia
[40] = tested on: HT29 colon
[41] = tested on: BT-549 breast
[42] = tested on: SF-295 CNS
[43] = tested on: NCI-H226 lung
[44] = tested on: SW-620 colon
[45] = tested on: M14 melanoma
[46] = tested on: UO-31 renal
[47] = tested on: RPMI-8226 leukemia
[48] = tested on: SF-539 CNS
[49] = tested on: 786-0 renal
[50] = tested on: OVCAR-8 ovarian
[51] = tested on: OVCAR-3 ovarian
[52] = tested on: MALME-3M melanoma
[53] = tested on: HOP-92 NSCLC
[54] = tested on: SF-268 CNS
[55] = tested on: EKVX NSCLC

COC(=O)c1ccc(C2SCC(=O)N2NC(=O)C(O)c2ccccc2)cc1 (stereo not given)
inactive: GI50 [1] > 100 µM | GI50 [2] > 100 µM | GI50 [3] > 100 µM | GI50 [4] > 100 µM | GI50 [5] > 100 µM | GI50 [6] > 100 µM | GI50 [7] > 100 µM | GI50 [8] > 100 µM | GI50 [9] > 100 µM | GI50 [10] > 100 µM | GI50 [11] > 100 µM | GI50 [12] > 100 µM | GI50 [13] > 100 µM | GI50 [14] > 100 µM | GI50 [15] > 100 µM | GI50 [16] > 100 µM | GI50 [17] > 100 µM | GI50 [18] > 100 µM | GI50 [19] > 100 µM | GI50 [20] > 100 µM | GI50 [21] > 100 µM | GI50 [22] > 100 µM | GI50 [23] > 100 µM | GI50 [24] > 100 µM | GI50 [25] > 100 µM | GI50 [26] > 100 µM | GI50 [27] > 100 µM | GI50 [28] > 100 µM | GI50 [29] > 100 µM | GI50 [30] > 100 µM | GI50 [31] > 100 µM | GI50 [32] > 100 µM | GI50 [33] > 100 µM | GI50 [34] > 100 µM | GI50 [35] > 100 µM | GI50 [36] > 100 µM | GI50 [37] > 100 µM | GI50 [38] > 100 µM | GI50 [39] > 100 µM | GI50 [40] > 100 µM | GI50 [41] > 100 µM | GI50 [42] > 100 µM | GI50 [43] > 100 µM | GI50 [44] > 100 µM | GI50 [45] > 100 µM | GI50 [46] > 100 µM | GI50 [47] > 100 µM | GI50 [48] > 100 µM | GI50 [49] > 100 µM | GI50 [50] > 100 µM | GI50 [51] > 100 µM | GI50 [52] > 100 µM | GI50 [53] > 100 µM | GI50 [54] > 100 µM | GI50 [55] > 100 µM
> 100 µM: TGI [1] | TGI [2] | TGI [3] | TGI [4] | TGI [5] | TGI [6] | TGI [7] | TGI [8] | TGI [9] | TGI [10] | TGI [11] | TGI [12] | TGI [13] | TGI [14] | TGI [15] | TGI [16] | TGI [17] | TGI [18] | TGI [19] | TGI [20] | TGI [21] | TGI [22] | TGI [23] | TGI [24] | TGI [25] | TGI [26] | TGI [27] | TGI [28] | TGI [29] | TGI [30] | TGI [31] | TGI [32] | TGI [33] | TGI [34] | TGI [35] | TGI [36] | TGI [37] | TGI [38] | TGI [39] | TGI [40] | TGI [41] | TGI [42] | TGI [43] | TGI [44] | TGI [45] | TGI [46] | TGI [47] | TGI [48] | TGI [49] | TGI [50] | TGI [51] | TGI [52] | TGI [53] | TGI [54] | TGI [55]
